{"source": "the NIST ThermoML archive (doi:10.1016/j.tca.2016.08.003)", "key": {"[1]": {"details": "Crystal; DTA"}, "[2]": {"assay": "Molar enthalpy of transition or fusion", "details": "Crystal; DSC"}}, "note": "Numbers after ± are expanded uncertainties.", "data": [{"smiles": "O=[N+]([O-])[O-].[K+]", "note": "[potassium nitrate]", "values": [{"measurement": "Normal melting temperature", "setting": "[1]", "value": "333.80 ± 1.1", "unit": "°C"}, {"measurement": "Molar enthalpy of transition or fusion", "setting": "[2]", "value": "10.4 ± 0.3", "unit": "kJ/mol"}]}, {"smiles": "O=[N+]([O-])[O-].[Rb+]", "note": "[rubidium nitrate]", "values": [{"measurement": "Normal melting temperature", "setting": "[1]", "value": "309.50 ± 2", "unit": "°C"}, {"measurement": "Molar enthalpy of transition or fusion", "setting": "[2]", "value": "4.91 ± 0.31", "unit": "kJ/mol"}]}, {"smiles": "O=[N+]([O-])[O-].[Na+]", "note": "[sodium nitrate]", "values": [{"measurement": "Normal melting temperature", "setting": "[1]", "value": "305.90 ± 0.6", "unit": "°C"}, {"measurement": "Molar enthalpy of transition or fusion", "setting": "[2]", "value": "15.5 ± 0.34", "unit": "kJ/mol"}]}]}
